{"source": "patent US20170265465A1", "about": "“BIORATIONAL TREATMENT PRODUCTS AND METHODS OF USING SAME” (Board of Trustees of Michigan State University, priority 2014, published 2017)", "format_in_all_cases": "in vivo", "key": {"[1]": {"system": "creeping bentgrass (Agrostis palustris) putting green", "test": "Example 11: dried clippings weights", "conditions": "urea only 0.2 lb. N/1000 ft^2, no bio-adjuvant", "method": "(§1) Some biomass ratings were subjective visual estimations based on appearance of a combination of increased biomass and increased density on a 1 (least increase) to 9 (most increase) scale. Objective biomass ratings were also performed based on an increase in dried weight of clippings. Clippings were collected over pre-measured plot areas in each treatment replicate using a Toro® brand walk-behind greens mower Model Greensmaster 8000 at the height described in this Example and dried in a drying oven (60° C.) for approximately 48 hours before being weighed.\n(§2) Treatments were applied in the same manner and using the same equipment as previously described in Example 1. Turfgrass quality ratings and biomass ratings were performed as described in Example 1. Clippings were also collected as described in Example 1.\n(§3) Treatments were applied once only to 2 ft ([…])×10.5 ft (3.2 m) plots of turfgrass on Apr. 1, 2015, while the turfgrass was still in winter dormancy (desiccated, brown, and thin). No additional applications were made to the study area. The study was rated visually for turfgrass biomass increase on Apr. 3, 2015 (2 days after treatment), on Apr. 11, 2015, and on Apr. 17, 2015. Turfgrass quality ratings were taken on Apr. 11, 2015 and Apr. 17, 2015. Turfgrass clippings were collected, dried, and weighed on Apr. 19, 2015 and May 2, 2015."}, "[2]": {"system": "creeping bentgrass (Agrostis palustris) putting green", "test": "Example 11: turfgrass quality rating", "conditions": "scale 1-9, urea 0.2 lb. N/1000 ft^2", "method": "as §2, §3"}, "[3]": {"system": "creeping bentgrass (Agrostis palustris) putting green", "test": "Example 11, 2015 spring green-up (dormancy break) study: visual turfgrass biomass rating", "conditions": "urea only 0.2 lb. N/1000 ft^2, no bio-adjuvant; scale 1-5", "method": "as §1, with “Some biomass ratings were subjective visual estimations based on appearance of a combination of increased biomass and increased density on a 1 (least increase) to 9 (most increase) scale.” left out\nas §2, §3"}}, "data": [{"smiles": "NC(N)=O", "note": "[Urea only]", "values": [{"measurement": "Clippings (Biomass) Dry wt (g) Apr. 19, 2015 Mean", "setting": "[1]", "result": 4.623, "unit": "g"}, {"measurement": "Clippings (Biomass) Dry wt (g) May 2, 2015 Mean", "setting": "[1]", "result": 6.175, "unit": "g"}, {"measurement": "Turfgrass Quality", "setting": "[2]; Apr. 11, 2015", "result": 5.5}, {"measurement": "Turfgrass Quality", "setting": "[2]; Apr. 17, 2015", "result": 5.5}, {"measurement": "Turfgrass Quality", "setting": "[2]; Apr. 25, 2015", "result": 5.75}, {"measurement": "Appearance (Biomass Increase) Apr. 3, 2015 Mean", "setting": "[3]", "result": 1.5}, {"measurement": "Appearance (Biomass Increase) Apr. 11, 2015 Mean", "setting": "[3]", "result": 2.5}, {"measurement": "Appearance (Biomass Increase) Apr. 17, 2015 Mean", "setting": "[3]", "result": 3}, {"measurement": "Appearance (Biomass Increase) Apr. 25, 2015 Mean", "setting": "[3]", "result": 2.25}]}]}
